Data as given in the NIST ThermoML archive (doi:10.1016/j.fluid.2015.03.030).

Assay: Boiling temperature at pressure P
Conditions: Liquid, Ebulliometric method (Recirculating still)

O=C1OC(=O)c2cc(Cl)ccc21 [4-chlorophthalic anhydride]
Conditions | Boiling temperature at pressure P [°C]
3.412 kPa | 174.12
4.468 kPa | 181.16
5.15 kPa | 184.99
5.626 kPa | 187.38
6.455 kPa | 191.23
7.207 kPa | 194.4
8.268 kPa | 198.19
9.221 kPa | 201.31
10.66 kPa | 205.62
11.74 kPa | 208.48
12.99 kPa | 211.60
14.48 kPa | 214.97
15.93 kPa | 217.97
17.17 kPa | 220.36
18.59 kPa | 222.89
20.24 kPa | 225.72
21.71 kPa | 228.1
23.52 kPa | 230.67
25.37 kPa | 233.31
27.38 kPa | 235.90
29.59 kPa | 238.67
31.99 kPa | 241.41
34.47 kPa | 244.18
37.26 kPa | 247.0
40.2 kPa | 249.76
43.82 kPa | 252.96
46.79 kPa | 255.48
50.5 kPa | 258.40
54.42 kPa | 261.32
58.75 kPa | 264.30
63.31 kPa | 267.29
68.3 kPa | 270.4
72.98 kPa | 273.1
79.29 kPa | 276.50
86.41 kPa | 280.09
92.12 kPa | 282.82
99.1 kPa | 286.02
101 kPa | 287

O=C1OC(=O)c2cc(F)ccc21 [5-fluoro-1,3-isobenzofurandione]
Conditions | Boiling temperature at pressure P [°C]
3.549 kPa | 153.68
4.301 kPa | 158.39
5.517 kPa | 164.86
6.582 kPa | 169.60
7.86 kPa | 174.33
8.973 kPa | 178.04
10.5 kPa | 182.54
12.25 kPa | 187.07
13.2 kPa | 189.31
15.16 kPa | 193.52
17.63 kPa | 198.20
18.81 kPa | 200.23
21.16 kPa | 204.02
23.05 kPa | 206.79
26 kPa | 210.78
31.21 kPa | 216.91
36.41 kPa | 222.26
40.95 kPa | 226.48
45.02 kPa | 229.90
47.3 kPa | 231.69
48.21 kPa | 232.43
51.3 kPa | 234.71
53.29 kPa | 236.12
55.87 kPa | 237.93
57.3 kPa | 238.87
59.62 kPa | 240.39
65.49 kPa | 244.02
69.16 kPa | 246.14
73.58 kPa | 248.63
78.49 kPa | 251.18
85.68 kPa | 254.76
90.57 kPa | 257.03
93.83 kPa | 258.51
96.02 kPa | 259.49
97.24 kPa | 260.02
101.21 kPa | 261.70
